Assay results taken from ChEMBL document CHEMBL3407358, “Boehmeriasin A as new lead compound for the inhibition of topoisomerases and SIRT2” (Eur J Med Chem, 2015).
Activity calls are given as the source filed them. No cut-off for these calls is given here.

Key:
[1] = tested on: HeLa; experiment: Antiproliferative activity against human HeLa cells after 4 days by Coulter counter method; format: functional, cell-based; details: 96 h
[2] = biological target: T1, DNA topoisomerase 1 (Homo sapiens) (UniProt P11387); experiment: Stabilization of recombinant human topoisomerase 1-pBR322 DNA cleavage complex assessed as linear DNA formation at 0.5 uM after 60 mins by agarose gel electrophoresis
T1 sequence (whole entry): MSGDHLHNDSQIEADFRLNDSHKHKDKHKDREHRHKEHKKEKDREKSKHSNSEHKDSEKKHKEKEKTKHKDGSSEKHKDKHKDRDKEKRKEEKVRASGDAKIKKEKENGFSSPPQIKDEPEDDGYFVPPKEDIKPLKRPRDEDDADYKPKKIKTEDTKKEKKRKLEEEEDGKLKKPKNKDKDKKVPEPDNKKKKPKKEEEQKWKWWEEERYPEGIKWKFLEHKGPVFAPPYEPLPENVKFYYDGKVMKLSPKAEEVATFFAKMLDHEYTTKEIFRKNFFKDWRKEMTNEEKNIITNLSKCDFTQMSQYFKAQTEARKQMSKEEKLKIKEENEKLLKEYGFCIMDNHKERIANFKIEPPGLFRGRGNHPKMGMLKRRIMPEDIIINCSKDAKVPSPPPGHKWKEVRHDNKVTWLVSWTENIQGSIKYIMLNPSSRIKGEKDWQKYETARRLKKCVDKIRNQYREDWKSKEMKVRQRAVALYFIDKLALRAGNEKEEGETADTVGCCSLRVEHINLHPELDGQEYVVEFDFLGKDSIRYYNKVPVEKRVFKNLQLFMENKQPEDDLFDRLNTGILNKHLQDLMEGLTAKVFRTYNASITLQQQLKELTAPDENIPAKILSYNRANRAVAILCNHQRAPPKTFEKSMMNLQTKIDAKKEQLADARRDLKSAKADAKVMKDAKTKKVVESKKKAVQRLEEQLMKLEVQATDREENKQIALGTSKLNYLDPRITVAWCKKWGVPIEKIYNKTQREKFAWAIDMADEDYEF

[3] = biological target: DNA topoisomerase 2-alpha (Homo sapiens) (UniProt P11388); experiment: Inhibition of recombinant human topoisomerase 2-mediated relaxation of supercoiled pBR322 DNA at 10 uM after 60 mins by agarose gel electrophoresis
Sequence of DNA topoisomerase 2-alpha (Homo sapiens) (P11388 whole entry): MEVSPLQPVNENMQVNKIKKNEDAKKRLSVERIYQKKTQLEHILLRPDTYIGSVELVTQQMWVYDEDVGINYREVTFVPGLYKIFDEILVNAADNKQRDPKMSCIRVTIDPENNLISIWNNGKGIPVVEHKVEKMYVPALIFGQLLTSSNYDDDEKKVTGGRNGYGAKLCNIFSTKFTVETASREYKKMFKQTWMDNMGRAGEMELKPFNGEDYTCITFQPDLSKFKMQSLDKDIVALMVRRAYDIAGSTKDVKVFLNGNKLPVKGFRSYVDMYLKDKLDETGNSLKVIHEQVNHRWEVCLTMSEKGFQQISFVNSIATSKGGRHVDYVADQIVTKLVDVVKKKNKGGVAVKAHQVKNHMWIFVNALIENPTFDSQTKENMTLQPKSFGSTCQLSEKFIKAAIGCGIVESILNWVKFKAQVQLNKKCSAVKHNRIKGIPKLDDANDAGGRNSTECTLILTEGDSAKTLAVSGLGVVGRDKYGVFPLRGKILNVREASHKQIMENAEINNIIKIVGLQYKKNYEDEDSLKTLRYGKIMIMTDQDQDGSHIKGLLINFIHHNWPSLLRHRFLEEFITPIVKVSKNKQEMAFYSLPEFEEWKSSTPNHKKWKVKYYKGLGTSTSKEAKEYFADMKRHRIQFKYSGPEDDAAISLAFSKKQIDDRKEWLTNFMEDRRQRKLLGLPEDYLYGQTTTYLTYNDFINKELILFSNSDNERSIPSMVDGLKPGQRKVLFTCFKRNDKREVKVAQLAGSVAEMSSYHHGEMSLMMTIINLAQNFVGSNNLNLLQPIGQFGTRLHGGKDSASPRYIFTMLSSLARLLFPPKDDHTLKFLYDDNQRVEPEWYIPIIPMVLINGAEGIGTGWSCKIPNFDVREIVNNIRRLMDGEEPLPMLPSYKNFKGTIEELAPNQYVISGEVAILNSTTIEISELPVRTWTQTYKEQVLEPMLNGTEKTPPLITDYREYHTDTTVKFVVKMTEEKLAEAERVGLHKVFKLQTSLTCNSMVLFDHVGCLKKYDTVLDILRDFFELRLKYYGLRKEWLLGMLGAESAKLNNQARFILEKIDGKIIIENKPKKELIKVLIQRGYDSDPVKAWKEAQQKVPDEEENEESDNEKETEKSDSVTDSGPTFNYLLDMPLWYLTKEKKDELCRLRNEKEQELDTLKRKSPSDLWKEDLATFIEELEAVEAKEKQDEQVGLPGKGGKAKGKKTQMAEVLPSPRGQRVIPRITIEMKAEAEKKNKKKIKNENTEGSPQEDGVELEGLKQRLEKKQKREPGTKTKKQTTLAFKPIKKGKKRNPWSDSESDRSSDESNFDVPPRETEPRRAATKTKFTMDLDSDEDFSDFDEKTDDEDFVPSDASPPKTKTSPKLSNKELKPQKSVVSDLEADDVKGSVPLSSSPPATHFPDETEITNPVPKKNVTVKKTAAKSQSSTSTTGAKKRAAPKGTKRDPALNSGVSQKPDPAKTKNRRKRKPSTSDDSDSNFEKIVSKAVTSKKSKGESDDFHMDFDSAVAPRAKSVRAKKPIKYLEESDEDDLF

[4] = Antiproliferative activity against bovine BAEC cells after 3 days by Coulter counter method; format: functional, cell-based; details: Bos taurus, 72 h
[5] = biological target: T2, NAD-dependent protein deacetylase sirtuin-2 (Homo sapiens) (UniProt Q8IXJ6); experiment: Inhibition of SIRT2 (unknown origin) using KI179 as substrate preincubated at 200 uM for 5 mins before substrate addition measured after 1 hr by Fluor de Lys fluorescence assay
T2 sequence (whole entry): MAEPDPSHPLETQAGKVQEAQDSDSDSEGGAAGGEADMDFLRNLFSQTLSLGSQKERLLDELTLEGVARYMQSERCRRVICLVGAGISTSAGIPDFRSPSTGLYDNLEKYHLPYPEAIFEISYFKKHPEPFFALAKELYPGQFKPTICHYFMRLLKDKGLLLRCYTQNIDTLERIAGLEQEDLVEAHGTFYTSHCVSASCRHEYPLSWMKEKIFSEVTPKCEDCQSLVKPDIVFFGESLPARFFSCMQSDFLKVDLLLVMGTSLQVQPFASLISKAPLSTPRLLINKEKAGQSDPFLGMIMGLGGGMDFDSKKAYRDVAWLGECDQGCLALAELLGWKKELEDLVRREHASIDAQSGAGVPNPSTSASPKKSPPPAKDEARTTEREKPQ

[6] = Antiproliferative activity against human HMEC1 cells after 4 days by Coulter counter method; format: functional, cell-based; details: HMEC-1, 96 h
[7] = biological target: T1, DNA topoisomerase 1 (Homo sapiens); experiment: Inhibition of recombinant human topoisomerase 1-mediated relaxation of supercoiled pBR322 DNA at 10 uM after 60 mins by agarose gel electrophoresis
[8] = tested on: CCRF-CEM; experiment: Antiproliferative activity against human CEM cells after 96 hrs by Coulter counter method; format: functional, cell-based
[9] = biological target: T3, NAD-dependent protein deacetylase sirtuin-1 (Homo sapiens) (UniProt Q96EB6); experiment: Inhibition of SIRT1 (unknown origin) using KI177 as substrate preincubated at 200 uM for 5 mins before substrate addition measured after 1 hr by Fluor de Lys fluorescence assay
T3 sequence (whole entry): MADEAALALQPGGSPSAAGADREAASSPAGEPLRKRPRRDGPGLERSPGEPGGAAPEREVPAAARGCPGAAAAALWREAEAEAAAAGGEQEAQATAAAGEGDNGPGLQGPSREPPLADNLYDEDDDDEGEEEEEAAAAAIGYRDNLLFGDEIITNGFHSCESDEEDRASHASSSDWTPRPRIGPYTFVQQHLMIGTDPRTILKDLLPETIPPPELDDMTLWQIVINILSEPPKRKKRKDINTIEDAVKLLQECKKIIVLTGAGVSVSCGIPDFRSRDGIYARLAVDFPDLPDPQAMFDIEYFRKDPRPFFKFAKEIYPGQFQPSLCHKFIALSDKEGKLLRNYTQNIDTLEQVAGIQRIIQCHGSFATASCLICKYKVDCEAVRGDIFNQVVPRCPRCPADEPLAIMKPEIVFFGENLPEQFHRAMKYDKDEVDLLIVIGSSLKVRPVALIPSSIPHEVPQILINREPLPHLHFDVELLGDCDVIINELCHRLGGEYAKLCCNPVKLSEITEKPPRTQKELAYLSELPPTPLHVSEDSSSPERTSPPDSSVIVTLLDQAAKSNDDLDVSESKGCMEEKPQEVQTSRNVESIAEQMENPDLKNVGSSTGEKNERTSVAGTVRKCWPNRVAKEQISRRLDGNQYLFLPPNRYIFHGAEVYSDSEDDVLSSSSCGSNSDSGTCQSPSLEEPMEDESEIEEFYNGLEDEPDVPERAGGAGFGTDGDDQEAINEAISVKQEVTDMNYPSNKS

[10] = tested on: L1210; experiment: Antiproliferative activity against mouse L1210 cells after 48 hrs by Coulter counter method; format: functional, cell-based; details: L1210, 48 h
[11] = biological target: DNA topoisomerase 2-alpha (Homo sapiens) (UniProt P11388); experiment: Stabilization of recombinant human topoisomerase 2-pBR322 DNA cleavage complex assessed as linear DNA formation at 100 uM after 60 mins by agarose gel electrophoresis
[12] = biological target: DNA topoisomerase 2-alpha (Homo sapiens) (UniProt P11388); experiment: Inhibition of recombinant human topoisomerase 2-mediated relaxation of supercoiled pBR322 DNA after 60 mins by agarose gel electrophoresis
[13] = biological target: DNA topoisomerase 2-alpha (Homo sapiens) (UniProt P11388); experiment: Inhibition of recombinant human topoisomerase 2-mediated relaxation of supercoiled pBR322 DNA at 50 uM after 60 mins by agarose gel electrophoresis
[14] = biological target: DNA topoisomerase 2-alpha (Homo sapiens) (UniProt P11388); experiment: Stabilization of recombinant human topoisomerase 2-pBR322 DNA cleavage complex assessed as linear DNA formation at 10 uM after 60 mins by agarose gel electrophoresis

| SMILES | IC50 [1] | Activity [2] | inhibition [3] | IC50 [4] | inhibition [5] | IC50 [6] | inhibition [7] | IC50 [8] | inhibition [9] | IC50 [10] | Activity [11] | inhibition [12] | inhibition [13] | Activity [14] |
| --- | --- | --- | --- | --- | --- | --- | --- | --- | --- | --- | --- | --- | --- | --- |
| COc1ccc2c3c(c4cc(OC)c(OC)cc4c2c1)CN1CCCC[C@@H]1C3 | 66 nM | inactive | inactive | 23 nM | 65% | 7.4 nM | Active | 185 nM | 12% | 19 nM | inactive | Dose-dependent effect | Active |  |
| COc1cc(NS(C)(=O)=O)ccc1Nc1c2ccccc2nc2ccccc12 |  |  |  |  |  |  |  |  |  |  |  |  |  | Active |
| CC[C@@]1(O)C(=O)OCc2c1cc1n(c2=O)Cc2cc3ccccc3nc2-1 |  | Active |  |  |  |  |  |  |  |  |  |  |  |  |
| COc1ccc(/C=C\c2cc(OC)c(OC)c(OC)c2)cc1OP(=O)(O)O [FOSBRETABULIN DISODIUM] | 79 nM |  |  | 3.9 nM |  | 2.9 nM |  | 95 nM |  | 82 nM |  |  |  |  |
| COc1ccc2c3c(c4cc(OC)c(OC)cc4c2c1)CN1CCCCC1C3 (racemic) | 76 nM |  |  | 9 nM |  | 29 nM |  | 119 nM |  | 71 nM |  |  |  |  |
| COc1ccc2c3c(c4cc(OC)c(OC)cc4c2c1)CN1CCCC[C@H]1C3 | 182 nM | inactive | inactive | 23 nM | 41% | 82 nM | Active | 201 nM | 10% | 111 nM | inactive | Dose-dependent effect | Active |  |
